# From US20240425479A1, “HALO-SUBSTITUTED AMINO AZA-HETEROARYL COMPOUNDS AS INHIBITORS OF THE HAEMATOPOIETIC PROGENITOR KINASE 1 (HPK1)” (priority 2021, published 2024)
# Biological target: T1, Recombinant (1-346) HPK1 (h) (Homo sapiens, UniProt Q92918)
# T1 construct: Recombinant (1-346) HPK1 (h) is incubated with 8 mM MOPS pH 7.0
# T1 sequence (Q92918 1-346): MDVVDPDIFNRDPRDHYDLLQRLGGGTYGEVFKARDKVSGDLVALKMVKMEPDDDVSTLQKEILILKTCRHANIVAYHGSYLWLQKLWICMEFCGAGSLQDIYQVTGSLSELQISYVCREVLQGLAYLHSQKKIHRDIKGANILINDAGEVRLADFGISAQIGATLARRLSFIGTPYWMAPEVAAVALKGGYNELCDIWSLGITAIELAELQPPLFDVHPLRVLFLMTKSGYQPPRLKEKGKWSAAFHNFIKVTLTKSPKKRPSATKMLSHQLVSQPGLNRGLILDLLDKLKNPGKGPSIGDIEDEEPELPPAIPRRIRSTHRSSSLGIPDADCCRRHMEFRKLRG
# Assay: HPK1 human STE kinase enzymatic radiometric assay
# Format: biochemical
# Details: read-out: HPK1 IC50 nM Range
# Experimental: (a) HPK1 Human STE Kinase Enzymatic Radiometric Assay
# A stock solution of 10 mM of test compound is prepared in DMSO. The compound plate was prepared by 3-fold and 9-point serial dilutions. Recombinant (1-346) HPK1 (h) is incubated with 8 mM MOPS pH 7.0, 0.2 mM EDTA, 0.33 mg/mL myelin basic protein, 10 mM MgAcetate and [gamma-33P]-ATP (specific activity and concentration as required). The reaction is initiated by the addition of the Mg/ATP mix. After incubation for 40 minutes at RT, the reaction is stopped by the addition of phosphoric acid to a concentration of 0.5%, 10 μL of the reaction is then spotted onto a P30 filtermat and washed four times for 4 minutes in 0.425% phosphoric acid and once in methanol prior to drying and scintillation counting. For more details of kinase assay protocols, see: Gao, Y. et. al.; Biochem J.451 (2): 313-328, 2013.
row,Structure (SMILES),IC50 [nM]
1,"Nc1nc(F)c(-c2ccc(N3CCN(C4COC4)CC3)cc2)nc1-c1cc2c(cc1F)C(=O)NCC2 [Example I-45, 6-(3-amino-5-fluoro-6-(4-(4-(oxetan-3-yl)piperazin-1-yl)phenyl)pyrazin-2-yl)-7-fluoro-3,4-dihydroisoquinolin-1(2H)-one]",11 to 100
2,"CN1CCN(c2ccc(-c3nc(-c4cc5c(cc4F)C(=O)NCC5)c(N)nc3F)cc2)CC1 [Example I-54, 6-(3-amino-5-fluoro-6-(4-(4-methylpiperazin-1-yl)phenyl)pyrazin-2-yl)-7-fluoro-3,4-dihydroisoquinolin-1(2H)-one]",0.1 to 10
3,"CCN1CCN(c2ccc(-c3nc(-c4ccc5c(c4)CCNC5=O)c(N)nc3F)cc2)CC1 [Example I-55, 6-(3-amino-6-(4-(4-ethylpiperazin-1-yl)phenyl)-5-fluoropyrazin-2-yl)-3,4-dihydroisoquinolin-1(2H)-one]",0.1 to 10
4,"CCN1CCN(c2ccc(-c3nc(-c4cc5c(cc4F)C(=O)NCC5)c(N)nc3F)cc2)CC1 [Example I-56, 6-(3-amino-6-(4-(4-ethylpiperazin-1-yl)phenyl)-5-fluoropyrazin-2-yl)-7-fluoro-3,4-dihydroisoquinolin-1(2H)-one]",0.1 to 10
5,"C[C@@H]1CN(c2ccc(-c3nc(-c4ccc5c(c4)CCNC5=O)c(N)nc3F)cc2)C[C@H](C)N1C [Example I-57, 6-(3-amino-5-fluoro-6-(4-((3R,5S)-3,4,5-trimethylpiperazin-1-yl)phenyl)pyrazin-2-yl)-3,4-dihydroisoquinolin-1(2H)-one]",0.1 to 10
6,"C[C@@H]1CN(c2ccc(-c3nc(-c4cc5c(cc4F)C(=O)NCC5)c(N)nc3F)cc2)C[C@H](C)N1C [Example I-58, 6-(3-amino-5-fluoro-6-(4-((3R,5S)-3,4,5-trimethylpiperazin-1-yl)phenyl)pyrazin-2-yl)-7-fluoro-3,4-dihydroisoquinolin-1(2H)-one]",0.1 to 10
7,"CN1CC2(CCN(c3ccc(-c4nc(-c5cc6c(cc5F)C(=O)NCC6)c(N)nc4F)cc3)CC2)C1 [Example I-61, 6-(3-amino-5-fluoro-6-(4-(2-methyl-2,7-diazaspiro[3.5]nonan-7-yl)phenyl)pyrazin-2-yl)-7-fluoro-3,4-dihydroisoquinolin-1(2H)-one]",0.1 to 10
8,"Cc1nc2cc(-c3nc(-c4ccc(N5CCN(C(C)C)CC5)cc4)c(F)nc3N)c(F)cc2c(=O)[nH]1 [Example I-63, 7-(3-amino-5-fluoro-6-(4-(4-isopropylpiperazin-1-yl)phenyl)pyrazin-2-yl)-6-fluoro-2-methylquinazolin-4(3H)-one]",0.1 to 10
9,"CN(C)Cc1cc(-c2nc(-c3cc4c(cc3F)C(=O)NCC4)c(N)nc2F)ccc1N1CCOCC1 [Example I-65, 6-(3-amino-6-(3-((dimethylamino)methyl)-4-morpholinophenyl)-5-fluoropyrazin-2-yl)-7-fluoro-3,4-dihydroisoquinolin-1(2H)-one]",0.1 to 10
10,"Nc1nc(F)c(-c2ccc(N3CCN(CCCC(F)F)CC3)cc2)nc1-c1ccc2c(c1)CCNC2=O [Example I-68, 6-(3-amino-6-(4-(4-(4,4-difluorobutyl)piperazin-1-yl)phenyl)-5-fluoropyrazin-2-yl)-3,4-dihydroisoquinolin-1(2H)-one]",0.1 to 10
11,"Nc1nc(F)c(-c2ccc(N3CCN(CCCC(F)F)CC3)cc2)nc1-c1cc2c(cc1F)C(=O)NCC2 [Example I-69, 6-(3-amino-6-(4-(4-(4,4-difluorobutyl)piperazin-1-yl)phenyl)-5-fluoropyrazin-2-yl)-7-fluoro-3,4-dihydroisoquinolin-1(2H)-one]",0.1 to 10
12,"Nc1nc(F)c(-c2ccc(N3CCN(CCCC(F)F)CC3)cc2)nc1-c1ccc2c(=O)[nH]ccc2c1 [Example I-70, 6-(3-amino-6-(4-(4-(4,4-difluorobutyl)piperazin-1-yl)phenyl)-5-fluoropyrazin-2-yl)isoquinolin-1(2H)-one]",0.1 to 10

# More lines, now with the values ahead:
row,IC50 [nM],Structure (SMILES)
1,0.1 to 10,"Nc1nc(F)c(-c2ccc(C3CCOCC3)c([C@@H]3CCCN3)c2)nc1-c1cc2c(cc1F)C(=O)NCC2 [Example I-19, (S)-6-(3-amino-5-fluoro-6-(3-(pyrrolidin-2-yl)-4-(tetrahydro-2H-pyran-4-yl)phenyl)pyrazin-2-yl)-7-fluoro-3,4-dihydroisoquinolin-1(2H)-one]"
2,0.1 to 10,"Nc1nc(F)c(-c2ccc(N3CCOCC3)cc2)nc1-c1cc2c(cc1F)C(=O)NCC2 [Example I-34, 6-(3-amino-5-fluoro-6-(4-morpholinophenyl)pyrazin-2-yl)-7-fluoro-3,4-dihydroisoquinolin-1(2H)-one]"
3,0.1 to 10,"CN1CCN(c2ccc(-c3nc(-c4ccc5c(c4)CCNC5=O)c(N)nc3F)cc2)CC1 [Example I-41, 6-(3-amino-5-fluoro-6-(4-(4-methylpiperazin-1-yl)phenyl)pyrazin-2-yl)-3,4-dihydroisoquinolin-1(2H)-one]"
4,0.1 to 10,"Cc1[nH]c(=O)c2ccc(-c3nc(-c4ccc(N5CCN(C(C)C)CC5)cc4)c(F)nc3N)cc2c1Cl [Example I-43, 6-(3-amino-5-fluoro-6-(4-(4-isopropylpiperazin-1-yl)phenyl)pyrazin-2-yl)-4-chloro-3-methylisoquinolin-1(2H)-one]"
5,0.1 to 10,"Nc1nc(F)c(-c2ccc(N3CCN(C4COC4)CC3)cc2)nc1-c1ccc2c(c1)CCNC2=O [Example I-46, 6-(3-amino-5-fluoro-6-(4-(4-(oxetan-3-yl)piperazin-1-yl)phenyl)pyrazin-2-yl)-3,4-dihydroisoquinolin-1(2H)-one]"
6,0.1 to 10,"Nc1nc(F)c(-c2ccc(N3CCN(C4CCC4)CC3)cc2)nc1-c1cc(F)c2c(c1)CCNC2=O [Example I-47, 6-(3-amino-6-(4-(4-cyclobutylpiperazin-1-yl)phenyl)-5-fluoropyrazin-2-yl)-8-fluoro-3,4-dihydroisoquinolin-1(2H)-one]"
7,0.1 to 10,"Nc1nc(F)c(-c2ccc(N3CCN(C4CCC4)CC3)cc2)nc1-c1ccc2c(c1)CCNC2=O [Example I-49, 6-(3-amino-6-(4-(4-cyclobutylpiperazin-1-yl)phenyl)-5-fluoropyrazin-2-yl)-3,4-dihydroisoquinolin-1(2H)-one]"
8,0.1 to 10,"CC(C)N1CCN(c2ccc(-c3nc(-c4ccc5c(c4)CCNC5=O)c(N)nc3F)cc2)[C@H](C)C1 [Example I-50, (R)-6-(3-amino-5-fluoro-6-(4-(4-isopropyl-2-methylpiperazin-1-yl)phenyl)pyrazin-2-yl)-3,4-dihydroisoquinolin-1(2H)-one]"
9,0.1 to 10,"CC(C)N1CCN(c2ccc(-c3nc(-c4cc5c(cc4F)C(=O)NCC5)c(N)nc3F)cc2)[C@H](C)C1 [Example I-51, (R)-6-(3-amino-5-fluoro-6-(4-(4-isopropyl-2-methylpiperazin-1-yl)phenyl)pyrazin-2-yl)-7-fluoro-3,4-dihydroisoquinolin-1(2H)-one]"
10,0.1 to 10,"C[C@@H]1CN(C)CCN1c1ccc(-c2nc(-c3ccc4c(c3)CCNC4=O)c(N)nc2F)cc1 [Example I-52, (R)-6-(3-amino-6-(4-(2,4-dimethylpiperazin-1-yl)phenyl)-5-fluoropyrazin-2-yl)-3,4-dihydroisoquinolin-1(2H)-one]"
11,0.1 to 10,"C[C@@H]1CN(C)CCN1c1ccc(-c2nc(-c3cc4c(cc3F)C(=O)NCC4)c(N)nc2F)cc1 [Example I-53, (R)-6-(3-amino-6-(4-(2,4-dimethylpiperazin-1-yl)phenyl)-5-fluoropyrazin-2-yl)-7-fluoro-3,4-dihydroisoquinolin-1(2H)-one]"
